Data taken from EP0041644B1 (priority 1980, dated 1981).

Columns and labels:
L-1210 Leukemia = L-1210 Leukemia (Table IX); type: in vivo, mice
Description: The sodium and ammonium salts of the present invention were tested against transplantable mouse tumors as indicated below.

O=C1[O][Pt-2]2([NH2+]CC3(CCCCC3)C[NH2+]2)[O]C(=O)C1O [2-hydroxymalonato (1,1-diaminomethylcyclohexane)platinum (II)]
Average Weight Change,g (L-1210 Leukemia; 2 mg/kg/inj ip, qd 1→9): -1.3 g | Effect MST % T/C (L-1210 Leukemia; 2 mg/kg/inj ip, qd 1→9): 138 % T/C | MST Days (L-1210 Leukemia; 2 mg/kg/inj ip, qd 1→9): 9.0 days | Survivors Day 5(45) (L-1210 Leukemia; 2 mg/kg/inj ip, qd 1→9): 6/6 | Average Weight Change,g (L-1210 Leukemia; 4 mg/kg/inj ip, qd 1→9): -1.7 g | Effect MST % T/C (L-1210 Leukemia; 4 mg/kg/inj ip, qd 1→9): 192 % T/C | MST Days (L-1210 Leukemia; 4 mg/kg/inj ip, qd 1→9): 12.5 days | Survivors Day 5(45) (L-1210 Leukemia; 4 mg/kg/inj ip, qd 1→9): 6/6 | Average Weight Change,g (L-1210 Leukemia; 8 mg/kg/inj ip, qd 1→9): -2.1 g | Effect MST % T/C (L-1210 Leukemia; 8 mg/kg/inj ip, qd 1→9): 269 % T/C | MST Days (L-1210 Leukemia; 8 mg/kg/inj ip, qd 1→9): 17.5 days | Survivors Day 5(45) (L-1210 Leukemia; 8 mg/kg/inj ip, qd 1→9): 6/6 | Average Weight Change,g (L-1210 Leukemia; 12 mg/kg/inj ip, Day 1): -1.6 g | Effect MST % T/C (L-1210 Leukemia; 12 mg/kg/inj ip, Day 1): 185 % T/C | MST Days (L-1210 Leukemia; 12 mg/kg/inj ip, Day 1): 12.0 days | Survivors Day 5(45) (L-1210 Leukemia; 12 mg/kg/inj ip, Day 1): 6/6 | Average Weight Change,g (L-1210 Leukemia; 12 mg/kg/inj ip, qd 1→9): -2.1 g | Effect MST % T/C (L-1210 Leukemia; 12 mg/kg/inj ip, qd 1→9): 269 % T/C | MST Days (L-1210 Leukemia; 12 mg/kg/inj ip, qd 1→9): 17.5 days | Survivors Day 5(45) (L-1210 Leukemia; 12 mg/kg/inj ip, qd 1→9): 6/6 | Average Weight Change,g (L-1210 Leukemia; 18 mg/kg/inj ip, Day 1): -2.0 g | Effect MST % T/C (L-1210 Leukemia; 18 mg/kg/inj ip, Day 1): 169 % T/C | MST Days (L-1210 Leukemia; 18 mg/kg/inj ip, Day 1): 11.5 days | Survivors Day 5(45) (L-1210 Leukemia; 18 mg/kg/inj ip, Day 1): 6/6 | Average Weight Change,g (L-1210 Leukemia; 24 mg/kg/inj ip, Day 1): -2.8 g | Effect MST % T/C (L-1210 Leukemia; 24 mg/kg/inj ip, Day 1): 223 % T/C | MST Days (L-1210 Leukemia; 24 mg/kg/inj ip, Day 1): 14.5 days | Survivors Day 5(45) (L-1210 Leukemia; 24 mg/kg/inj ip, Day 1): 6/6 | Average Weight Change,g (L-1210 Leukemia; 36 mg/kg/inj ip, Day 1): -3.6 g | Effect MST % T/C (L-1210 Leukemia; 36 mg/kg/inj ip, Day 1): 246 % T/C | MST Days (L-1210 Leukemia; 36 mg/kg/inj ip, Day 1): 16.0 days | Survivors Day 5(45) (L-1210 Leukemia; 36 mg/kg/inj ip, Day 1): 5/6 | maximum T/C (L-1210 Leukemia; qd 1→9 (cis-DDP 2.4, parent 8 and 12, sodium salt 12 mg/kg/injection)): 269% | maximum T/C (L-1210 Leukemia; single ip injection at maximum tolerated dose (cis-DDP 8 mg/kg, the two others 36 mg/kg)): 246% | Water-solubility at room temperature (Water solubility): < 1600 µg/mL
